# Assay results: patent publication US8202513B2, “Aryl potassium channel blockers and uses thereof” (Bionomics Limited, priority 2007, dated 2012)
# Columns and labels:
# [1] = molecular target: Kv1.3 channel (Homo sapiens, UniProt P22001); details: cited from earlier work
# [2] = molecular target: T1, hKv1.1 (Homo sapiens, UniProt Q09470); experiment: Inhibition of Kv1.1 currents, planar patch clamp (selectivity); type: cell-based; details: CHO cells stably transfected with hKv1.1
# T1 construct: expressed in transfected cells; host or cells: CHO cells, stably transfected
# Experimental: (§1) EC50 values for inhibition of Kv1.1 and Kv1.5 currents were determined by the method according to Schmitz et al (2005) Molecular Pharmacology 68, 1254-1270 with the following differences: • 1. Chinese Hamster Ovary (CHO) cells stably transfected with hKv1.1 and hKv1.5 were used in place of transfected rat L929 cells. • 2. All electrophysiology was performed using planar patch clamp (Port-A-Patch, Nanion Technologies Gmbh, Munich) in contrast to conventional patch clamp. • 3. EC50 values shown were determined from averaged dose response data obtained from 3 or more cells.
# [3] = molecular target: hKv1.5 (Homo sapiens, UniProt P22460); experiment: Inhibition of Kv1.5 currents, planar patch clamp (selectivity); type: cell-based; details: CHO cells stably transfected with hKv1.5
# Experimental: as §1
# [4] = molecular target: T2, human Kv1.3 ion channel (Homo sapiens, UniProt P22001); experiment: Inhibition of Kv1.3 currents, planar patch clamp; type: cell-based; details: Human Jurkat cells or CHO cells stably transfected with hKv1.3; averaged dose response data from 3 or more cells
# T2 construct: Human Jurkat cells (which endogenously express hKv1.3) or Chinese Hamster Ovary (CHO) cells stably transfected with hKv1.3 were used; endogenous in cells; host or cells: Human Jurkat cells (endogenous) or CHO cells stably transfected with hKv1.3
# Experimental: Potency of compounds to inhibit the human Kv1.3 ion channel was determined as follows:
# as §1, with “Kv1.3” for “Kv1.1 and Kv1.5”, “1. Human Jurkat cells (which endogenously express hKv1.3) or” for “1.”, “hKv1.3” for “hKv1.1 and hKv1.5”
# T2 sequence (P22001 whole entry): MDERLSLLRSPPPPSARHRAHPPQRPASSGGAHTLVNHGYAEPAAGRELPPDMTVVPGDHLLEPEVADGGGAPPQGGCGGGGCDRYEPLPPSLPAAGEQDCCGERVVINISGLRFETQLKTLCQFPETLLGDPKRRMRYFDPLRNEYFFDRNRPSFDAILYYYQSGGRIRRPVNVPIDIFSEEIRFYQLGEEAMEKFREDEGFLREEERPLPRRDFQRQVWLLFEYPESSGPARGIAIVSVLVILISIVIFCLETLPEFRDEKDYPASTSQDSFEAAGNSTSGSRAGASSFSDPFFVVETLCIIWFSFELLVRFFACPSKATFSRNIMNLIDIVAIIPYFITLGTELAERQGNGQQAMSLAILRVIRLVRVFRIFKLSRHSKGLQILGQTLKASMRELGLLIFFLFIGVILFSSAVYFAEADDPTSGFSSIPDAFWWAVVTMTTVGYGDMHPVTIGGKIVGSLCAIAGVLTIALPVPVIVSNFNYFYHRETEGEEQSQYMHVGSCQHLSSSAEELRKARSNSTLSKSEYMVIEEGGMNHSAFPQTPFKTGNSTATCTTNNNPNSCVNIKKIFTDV
# hKv1.5, sequence (P22460 whole entry): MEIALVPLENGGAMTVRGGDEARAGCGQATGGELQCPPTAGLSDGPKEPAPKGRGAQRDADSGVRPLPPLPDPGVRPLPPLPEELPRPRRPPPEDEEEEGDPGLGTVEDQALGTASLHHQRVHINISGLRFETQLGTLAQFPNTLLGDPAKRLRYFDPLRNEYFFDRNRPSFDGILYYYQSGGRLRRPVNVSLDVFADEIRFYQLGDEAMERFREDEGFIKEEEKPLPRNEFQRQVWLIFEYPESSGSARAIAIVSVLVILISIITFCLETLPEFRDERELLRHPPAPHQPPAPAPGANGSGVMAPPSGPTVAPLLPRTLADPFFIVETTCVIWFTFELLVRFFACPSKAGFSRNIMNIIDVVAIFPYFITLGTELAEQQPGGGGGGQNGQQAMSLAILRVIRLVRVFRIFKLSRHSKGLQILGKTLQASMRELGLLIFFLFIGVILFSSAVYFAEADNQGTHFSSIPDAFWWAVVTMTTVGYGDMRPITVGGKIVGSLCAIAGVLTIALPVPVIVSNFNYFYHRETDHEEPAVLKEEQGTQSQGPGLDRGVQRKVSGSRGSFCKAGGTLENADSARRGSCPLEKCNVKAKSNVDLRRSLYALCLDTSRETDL
# Kv1.3 channel, sequence (P22001 whole entry): as the sequence (P22001 whole entry) above
# T1 sequence (Q09470 whole entry): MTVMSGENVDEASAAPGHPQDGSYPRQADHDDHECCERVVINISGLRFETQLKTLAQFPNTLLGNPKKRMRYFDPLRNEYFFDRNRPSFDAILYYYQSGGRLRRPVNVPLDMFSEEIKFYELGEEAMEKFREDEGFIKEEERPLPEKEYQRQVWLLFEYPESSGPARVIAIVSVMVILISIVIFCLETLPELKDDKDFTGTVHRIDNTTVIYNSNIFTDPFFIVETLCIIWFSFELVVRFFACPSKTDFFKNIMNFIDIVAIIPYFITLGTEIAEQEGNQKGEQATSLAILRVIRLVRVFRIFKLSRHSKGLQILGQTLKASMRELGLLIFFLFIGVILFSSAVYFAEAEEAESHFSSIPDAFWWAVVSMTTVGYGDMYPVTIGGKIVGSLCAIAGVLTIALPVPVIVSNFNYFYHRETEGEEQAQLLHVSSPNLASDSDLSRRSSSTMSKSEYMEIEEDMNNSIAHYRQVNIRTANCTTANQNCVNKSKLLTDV
EC50 [4],SMILES,further results
–,"COc1c2occc2cc2ccc(=O)oc12 [8-Methoxypsoralen (8-MOP), 8-Methoxypsoralen]",blocking activity on the Kv1.3 channel [1]: weak blocking activity
–,COc1c(C(C)=O)c(O)c(OC)c2occc12 [Khellinone],blocking activity on the Kv1.3 channel [1]: weak blocking activity
150 to 300 nM,COc1cc(O)c(C(C)=O)c(OCCCCOc2ccccc2)c1 [reference compound],–
> 300 nM,CCCc1c(NCC)ccc(C(C)=O)c1OCCCc1ccccc1 [reference compound],–
> 300 nM,C=CCc1c(NC(C)=O)ccc(C(C)=O)c1OCCCc1ccccc1 [reference compound],–
> 300 nM,COc1cc(OCCCCOc2ccccc2)c(C(C)=O)c(OCCN2CCOCC2)c1 [reference compound],–
> 300 nM,CC(=O)c1c(OCCCCOc2ccccc2)cccc1OCCN1CCOCC1 [reference compound],–
> 300 nM,CC(=O)c1c(O)cccc1OCCCCOc1ccccc1 [reference compound],–
> 300 nM,CCCC(=O)c1ccc(NC(C)=O)cc1OCCCc1ccccc1 [reference compound],–
> 300 nM,CC(=O)Nc1ccc(C(C)=O)c(OCCCc2ccccc2)c1 [reference compound],–
> 300 nM,CC(=O)c1ccc(N)cc1OCCCc1ccccc1 [reference compound],–
> 300 nM,COc1ccc(C(C)=O)c(NCCCc2ccccc2)c1 [reference compound],–
> 300 nM,COc1ccc(C(C)=O)c(NC(=O)CCc2ccccc2)c1 [reference compound],–

SMILES,EC50 [4],further results
"COc1c(Cl)c(C)c(C(C)=O)c(OCCc2ccccn2)c1OCCC(C)c1ccc(F)cc1 (stereo not shown) [Example 7d, 1-[3-Chloro-5-[3-(4-fluoro-phenyl)-butoxy]-4-methoxy-2-methyl-6-(2-pyridin-2-yl-ethoxy)-phenyl]-ethanone]",< 50 nM,Selectivity for Kv1.3 over Kv1.1 [2]: 45 fold; selectivity for Kv1.3 over Kv1.5 [3]: 37 fold
"COc1c(Cl)c(C)c(C(C)=O)c(OCCN2CCOCC2)c1OCCC(C)c1ccc(F)cc1 (stereo not shown) [Example 8b, 1-[3-Chloro-5-[3-(4-fluoro-phenyl)-butoxy]-4-methoxy-2-methyl-6-(2-morpholin-4-yl-ethoxy)-phenyl]-ethanone]",< 50 nM,Selectivity for Kv1.3 over Kv1.1 [2]: 33 fold; selectivity for Kv1.3 over Kv1.5 [3]: 35 fold
"COc1c(Cl)c(C)c(C(C)=O)c(OCCN(C)C)c1OCCC(C)c1ccc(F)cc1 (stereo not shown) [Example 40, 1-{3-Chloro-6-(2-dimethylamino-ethoxy)-5-[3-(4-fluoro-phenyl)-butoxy]-4-methoxy-2-methyl-phenyl}-ethanone]",50 to 150 nM,–
"COc1c(Cl)c(C)c(C(C)=O)c(OCCn2ccnc2)c1OCCC(C)c1ccc(F)cc1 (stereo not shown) [Example 41, 1-[3-Chloro-5-[3-(4-fluoro-phenyl)-butoxy]-6-(2-imidazol-1-yl-ethoxy)-4-methoxy-2-methyl-phenyl]-ethanone]",< 50 nM,–
"COc1c(Cl)c(C)c(C(C)=O)c(OCCN2CCOC[C@@H]2C)c1OCCC(C)c1ccc(F)cc1 (stereo partly drawn) [Example 42, 1-{3-Chloro-5-[3-(4-fluoro-phenyl)-butoxy]-4-methoxy-2-methyl-6-[2-((S)-3-methyl-morpholin-4-yl)-ethoxy]-phenyl}-ethanone]",50 to 150 nM,–
